Experimental data: PubChem BioAssay AID1963826 (Molecular Pharmacology Branch, DTP, NCI, 2024)

Test system: 926638-142-R-J1-PDC complex spheroid viability
Test: Anticancer human tumor 926638-142-R-J1-PDC patient-derived endometrial carcinoma cell line growth inhibition [POLQ]
Details: for IC50: curve of first compound; for viability, T/C: stronger effect = lower value; active = viability on the fitted dose curve at most 10% of control; inactive = the rest
Summary of the method: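 PDC + HUVEC + MSC complex spheroids; POLQ inhibitors ± partner drugs; top conc. at/near clinical Cmax, else 10 microM (SN-38 1 microM), half-log dilutions; 37 degrees C, 5% CO2.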

[1] = second compound 0.0316 µM, first compound 0.0316 µM
[2] = second compound 0.0316 µM, first compound 0.1 µM
[3] = second compound 0.0316 µM, first compound 0.316 µM
[4] = second compound 0.0316 µM, first compound 1 µM
[5] = second compound 0.0316 µM, first compound 3.16 µM
[6] = second compound 0.0316 µM, first compound 10 µM
[7] = second compound 0.1 µM, first compound 0.0316 µM
[8] = second compound 0.1 µM, first compound 0.1 µM
[9] = second compound 0.1 µM, first compound 0.316 µM
[10] = second compound 0.1 µM, first compound 1 µM
[11] = second compound 0.1 µM, first compound 3.16 µM
[12] = second compound 0.1 µM, first compound 10 µM
[13] = second compound 0.316 µM, first compound 0.0316 µM
[14] = second compound 0.316 µM, first compound 0.1 µM
[15] = second compound 0.316 µM, first compound 0.316 µM
[16] = second compound 0.316 µM, first compound 1 µM
[17] = second compound 0.316 µM, first compound 3.16 µM
[18] = second compound 0.316 µM, first compound 10 µM
[19] = second compound 1 µM, first compound 0.0316 µM
[20] = second compound 1 µM, first compound 0.1 µM
[21] = second compound 1 µM, first compound 0.316 µM
[22] = second compound 1 µM, first compound 1 µM
[23] = second compound 1 µM, first compound 3.16 µM
[24] = second compound 1 µM, first compound 10 µM
[25] = second compound 3.16 µM, first compound 0.0316 µM
[26] = second compound 3.16 µM, first compound 0.1 µM
[27] = second compound 3.16 µM, first compound 0.316 µM
[28] = second compound 3.16 µM, first compound 1 µM
[29] = second compound 3.16 µM, first compound 3.16 µM
[30] = second compound 3.16 µM, first compound 10 µM
[31] = second compound 10 µM, first compound 0.0316 µM
[32] = second compound 10 µM, first compound 0.1 µM
[33] = second compound 10 µM, first compound 0.316 µM
[34] = second compound 10 µM, first compound 1 µM
[35] = second compound 10 µM, first compound 3.16 µM
[36] = second compound 10 µM, first compound 10 µM
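Also: spheroids exposed to drugs for one week before readout.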
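For viability, T/C in this document: percent viability relative to DMSO vehicle control wells set as 100%.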

CC(C)n1c(=O)n(C)c2cnc3cc(F)c(-c4ccc(OCCCN5CCCCC5)nc4)cc3c21 + Nc1ccc(C#CCN(C(=O)Cc2ncc(C(F)(F)F)cc2C(F)(F)F)c2ccc(F)cc2)nn1
> 10 µM: IC50 (second compound 0.0316 µM) | IC50 (second compound 0.1 µM) | IC50 (second compound 0.316 µM) | IC50 (second compound 1 µM) | IC50 (second compound 3.16 µM) | IC50 (second compound 10 µM)
inactive: viability, T/C [1] 105% | viability, T/C [2] 98% | viability, T/C [3] 106% | viability, T/C [4] 107% | viability, T/C [5] 95% | viability, T/C [6] 73.6% | viability, T/C [7] 120% | viability, T/C [8] 103% | viability, T/C [9] 95.6% | viability, T/C [10] 106% | viability, T/C [11] 90.1% | viability, T/C [12] 74.6% | viability, T/C [13] 96.3% | viability, T/C [14] 99.2% | viability, T/C [15] 96% | viability, T/C [16] 93.9% | viability, T/C [17] 84.5% | viability, T/C [18] 65.4% | viability, T/C [19] 104% | viability, T/C [20] 106% | viability, T/C [21] 84.7% | viability, T/C [22] 90% | viability, T/C [23] 83% | viability, T/C [24] 73.7% | viability, T/C [25] 93.5% | viability, T/C [26] 84.7% | viability, T/C [27] 93% | viability, T/C [28] 93.8% | viability, T/C [29] 83.4% | viability, T/C [30] 71.2% | viability, T/C [31] 73.6% | viability, T/C [32] 85.6% | viability, T/C [33] 97.2% | viability, T/C [34] 96.1% | viability, T/C [35] 86.3% | viability, T/C [36] 67.1%

C=CCn1c(=O)c2cnc(Nc3ccc(N4CCN(C)CC4)cc3)nc2n1-c1cccc(C(C)(C)O)n1 + Nc1ccc(C#CCN(C(=O)Cc2ncc(C(F)(F)F)cc2C(F)(F)F)c2ccc(F)cc2)nn1
inactive: viability, T/C (second compound 0.0316 µM, first compound 0.00316 µM) 100% | viability, T/C (second compound 0.0316 µM, first compound 0.01 µM) 97.9% | viability, T/C [1] 80.7% | viability, T/C [2] 63% | viability, T/C [3] 57.5% | viability, T/C [4] 44.9% | viability, T/C (second compound 0.1 µM, first compound 0.00316 µM) 122% | viability, T/C (second compound 0.1 µM, first compound 0.01 µM) 90.6% | viability, T/C [7] 92.3% | viability, T/C [8] 81.3% | viability, T/C [9] 56.1% | viability, T/C [10] 43.3% | viability, T/C (second compound 0.316 µM, first compound 0.00316 µM) 109% | viability, T/C (second compound 0.316 µM, first compound 0.01 µM) 95.7% | viability, T/C [13] 95% | viability, T/C [14] 80.5% | viability, T/C [15] 64.6% | viability, T/C [16] 42% | viability, T/C (second compound 1 µM, first compound 0.00316 µM) 116% | viability, T/C (second compound 1 µM, first compound 0.01 µM) 94.4% | viability, T/C [19] 80.5% | viability, T/C [20] 72.7% | viability, T/C [21] 57.1% | viability, T/C [22] 37.6% | viability, T/C (second compound 3.16 µM, first compound 0.00316 µM) 103% | viability, T/C (second compound 3.16 µM, first compound 0.01 µM) 88.9% | viability, T/C [25] 80% | viability, T/C [26] 84.4% | viability, T/C [27] 60.2% | viability, T/C [28] 40.6% | viability, T/C (second compound 10 µM, first compound 0.00316 µM) 76.5% | viability, T/C (second compound 10 µM, first compound 0.01 µM) 95.2% | viability, T/C [31] 88.9% | viability, T/C [32] 67.3% | viability, T/C [33] 49.1% | viability, T/C [34] 42.6%
0.67 µM: IC50 (second compound 0.316 µM)
0.626 µM: IC50 (second compound 0.1 µM)
0.618 µM: IC50 (second compound 3.16 µM)
0.263 µM: IC50 (second compound 10 µM)
0.457 µM: IC50 (second compound 1 µM)
0.584 µM: IC50 (second compound 0.0316 µM)

O=C(c1cc(Cc2n[nH]c(=O)c3ccccc23)ccc1F)N1CCN(C(=O)C2CC2)CC1 + Nc1ccc(C#CCN(C(=O)Cc2ncc(C(F)(F)F)cc2C(F)(F)F)c2ccc(F)cc2)nn1
> 10 µM: IC50 (second compound 0.0316 µM) | IC50 (second compound 0.1 µM) | IC50 (second compound 0.316 µM) | IC50 (second compound 1 µM) | IC50 (second compound 3.16 µM) | IC50 (second compound 10 µM)
inactive: viability, T/C [1] 82.5% | viability, T/C [2] 96.2% | viability, T/C [3] 84.5% | viability, T/C [4] 94.9% | viability, T/C [5] 81.9% | viability, T/C [6] 80.4% | viability, T/C [7] 101% | viability, T/C [8] 110% | viability, T/C [9] 86.5% | viability, T/C [10] 88.2% | viability, T/C [11] 80.7% | viability, T/C [12] 73.8% | viability, T/C [13] 100% | viability, T/C [14] 93.8% | viability, T/C [15] 89.7% | viability, T/C [16] 99% | viability, T/C [17] 82.8% | viability, T/C [18] 77.8% | viability, T/C [19] 97.5% | viability, T/C [20] 90.6% | viability, T/C [21] 85% | viability, T/C [22] 83.2% | viability, T/C [23] 82% | viability, T/C [24] 69.3% | viability, T/C [25] 86.3% | viability, T/C [26] 89.9% | viability, T/C [27] 91.4% | viability, T/C [28] 87.6% | viability, T/C [29] 98.3% | viability, T/C [30] 81.6% | viability, T/C [31] 87.6% | viability, T/C [32] 85.8% | viability, T/C [33] 80.1% | viability, T/C [34] 73.7% | viability, T/C [35] 81.5% | viability, T/C [36] 66.1%
